Experiments:
[1] = target: PD-1/PD-L1 (Homo sapiens (Human), UniProt Q9NZQ7); assay: PD-1/PD-L1 Binding Assay (Alphascreen)
Method in brief: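 PD-1/PD-L1 binding detected by anti-6×His acceptor and streptavidin donor beads after 120 min in the dark at 25 °C. Beforehand, the two proteins were incubated 15 min at 25 °C with inhibitor at 0.015–300 nM (1% DMSO). IC50 comes from a log concentration–response curve.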

[2] = Pharmacokinetic Assay, single oral dose 100 mg/kg (Table 11); assay type: in vivo; conditions: mouse, C57 female mice, oral (intragastric), plasma
Procedure: Adult C57 female mice were received to single-dose of the test compounds with […], 10% Kolliphor^@HS 15 and 80% saline as excipients, the mice (n=9) were giving oral administration (intragastric administration) with the compounds at a dose of 100 mg/kg. Time of blood collection: 15 min, 30 min, 1 h, 2 h, 4 h, 7 h, 24 h. Approximately 0.1 mL of whole blood was collected from retro-orbital venous plexus of 3 mice at each time point, and placed into tubes that contained K2-EDTA as an anticoagulant. The whole blood was centrifuged at 4° C. and 4000 rpm for 10 min. The plasma was transferred into centrifuge tubes, and stored at −20° C. until being analyzed. Concentrations of test compounds in the plasma samples were analyzed with liquid chromatography-tandem mass spectrometry (LC-MS/MS). Plasma concentration-time data of individual animals was analyzed using Microsoft Excel 2010. Non-compartmental model was introduced in concentration analysis. The pharmacokinetic parameters of the test compounds were calculated using WinNonlin (version 4.1; Pharsight) software.

PD-1/PD-L1, sequence (Q9NZQ7 19-238): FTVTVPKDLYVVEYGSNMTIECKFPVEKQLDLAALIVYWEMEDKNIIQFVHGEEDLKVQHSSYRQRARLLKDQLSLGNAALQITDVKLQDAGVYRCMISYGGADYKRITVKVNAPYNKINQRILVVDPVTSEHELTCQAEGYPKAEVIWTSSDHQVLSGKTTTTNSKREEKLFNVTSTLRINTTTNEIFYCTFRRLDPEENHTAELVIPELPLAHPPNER

Compound	IC50 ([1]; numeric values)	AUC [2]	Cmax [2]	Tmax [2]	half-life [2]	IC50 ([1]; range symbols)
Cc1c(-c2nc3cc(CNC[C@@H]4CCCO4)c(OC(F)F)cc3o2)cccc1-c1cccc(-c2nc3cc(CN4CCC[C@H]4C(=O)O)c(OC(F)F)cc3o2)c1C [Example 64, ((6-(difluoromethoxy)-2-(3′-(6-(difluoromethoxy)-5-(((((S)-tetrahydrofuran-2-yl)methyl)amino)methyl)benzo[d]oxazol-2-yl)-2,2′-dimethyl-[1,1′-biphenyl]-3-yl)benzo[d]oxazol-5-yl)methyl)-L-proline]	1.8 nM	61500 ng·h/mL	4320 ng/mL	7 h	7.2 h	
Cc1c(-c2nc3cc(CN4CC[C@H]4CO)c(OC(F)F)cc3o2)cccc1-c1cccc(-c2nc3cc(CN4CCC[C@H]4C(=O)O)c(OC(F)F)cc3o2)c1C [Example 31, ((6-(difluoromethoxy)-2-(3′-(6-(difluoromethoxy)-5-(((S)-2-(hydroxymethyl)azetidin-1-yl)methyl)benzo[d]oxazol-2-yl)-2,2′-dimethyl-[1,1′-biphenyl]-3-yl)benzo[d]oxazol-5-yl)methyl)-L-proline]	0.5 nM	6600 ng·h/mL	1000 ng/mL	1 h	9.81 h	
Cc1c(-c2nc3cc(CN4CC(N(C)C)C4)c(OC(F)F)cc3o2)cccc1-c1cccc(-c2nc3cc(CN4CCC[C@H]4C(=O)O)c(OC(F)F)cc3o2)c1C [Example 33, ((6-(difluoromethoxy)-2-(3′-(6-(difluoromethoxy)-5-((3-(dimethylamino)azetidin-1-yl)methyl)benzo[d]oxazol-2-yl)-2,2′-dimethyl-[1,1′-biphenyl]-3-yl)benzo[d]oxazol-5-yl)methyl)-L-proline]	1.5 nM	8920 ng·h/mL	727 ng/mL	4 h	11 h	
Cc1c(-c2nc3cc(CN4CCC4)c(OC(F)F)cc3o2)cccc1-c1cccc(-c2nc3cc(CN4CCC[C@H]4C(=O)O)c(OC(F)F)cc3o2)c1C [Example 8, ((2-(3′-(5-(azetidin-1-ylmethyl)-6-(difluoromethoxy)benzo[d]oxazol-2-yl)-2,2′-dimethyl-[1,1′-biphenyl]-3-yl)-6-(difluoromethoxy)benzo[d]oxazol-5-yl)methyl)-L-proline]	0.75 nM	8240 ng·h/mL	974 ng/mL	4 h	3.97 h	
Cc1c(-c2nc3cc(CN4CC5(CC5)C4)c(OC(F)F)cc3o2)cccc1-c1cccc(-c2nc3cc(CN4CCC[C@H]4C(=O)O)c(OC(F)F)cc3o2)c1C [Example 74, ((2-(3′-(5-((5-azaspiro [2.3]hexan-5-yl)methyl)-6-(difluoromethoxy)benzo[d]oxazol-2-yl)-2,2′-dimethyl-[1,1′-biphenyl]-3-yl)-6-(difluoromethoxy)benzo[d]oxazol-5-yl)methyl)-L-proline]	1.1 nM	59500 ng·h/mL	4460 ng/mL	4 h	8.2 h	
Cc1c(Nc2nccc3cc(CN4CCC(O)C4)cnc23)cccc1-c1cccc(-c2nc3cc(CN4CCC[C@H]4C(=O)O)c(OC(F)F)cc3o2)c1C (stereo partly drawn) [Example 175, ((6-(difluoromethoxy)-2-(3′-((3-((3-hydroxypyrrolidin-1-yl)methyl)-1,7-naphthyridin-8-yl)amino)-2,2′-dimethyl-[1,1′-biphenyl]-3-yl)benzo[d]oxazol-5-yl)methyl)-L-proline]	3.4 nM	19900 ng·h/mL	1630 ng/mL	2 h	3.63 h	
Cc1c(-c2nc3cc(CN4CCC[C@H]4C(=O)O)c(OC(F)F)cc3o2)cccc1-c1cccc(-c2nc3cc(CN4CCCC4)cc(F)c3o2)c1C [Example 95, ((6-(difluoromethoxy)-2-(3′-(7-fluoro-5-(pyrrolidin-1-ylmethyl)benzo[d]oxazol-2-yl)-2,2′-dimethyl-[1,1′-biphenyl]-3-yl)benzo[d]oxazol-5-yl)methyl)-L-proline]	1.4 nM	22900 ng·h/mL	2030 ng/mL	4 h	6.48 h	
Cc1c(-c2nc3cc(CN4CCC4C)c(OC(F)F)cc3o2)cccc1-c1cccc(-c2nc3cc(CN4CCC[C@H]4C(=O)O)c(OC(F)F)cc3o2)c1C (stereo partly drawn) [Example 36, ((6-(difluoromethoxy)-2-(3′-(6-(difluoromethoxy)-5-((2-methylazetidin-1-yl)methyl)benzo[d]oxazol-2-yl)-2,2′-dimethyl-[1,1′-biphenyl]-3-yl)benzo[d]oxazol-5-yl)methyl)-L-proline]	1.1 nM	21400 ng·h/mL	1670 ng/mL	1 h	8.26 h	
Cc1c(-c2nc3cc(CN4CCC[C@H]4C(=O)O)c(OC(F)F)cc3o2)cccc1-c1cccc(-c2nc3cc(CN4CCC[C@H]4C(=O)O)c(OC(F)F)cc3o2)c1C [Example 2, (2′S)-(((2,2′-dimethyl-[1,1′-biphenyl]-3,3′-diyl)bis(6-(difluoromethoxy)benzo[d]oxazole-2,5-diyl))bis(methylene))di-L-proline]	0.2 nM	271 ng·h/mL	218 ng/mL	0.5 h	3.3 h	
Cc1c(-c2nc3cc(CN4CCC(O)C4)c(OC(F)F)cc3o2)cccc1-c1cccc(-c2nc3cc(CN4CCC[C@H]4C(=O)O)c(OC(F)F)cc3o2)c1C (stereo partly drawn) [Example 14, ((6-(difluoromethoxy)-2-(3′-(6-(difluoromethoxy)-5-((3-hydroxypyrrolidin-1-yl)methyl)benzo[d]oxazol-2-yl)-2,2′-dimethyl-[1,1′-biphenyl]-3-yl)benzo[d]oxazol-5-yl)methyl)-L-proline]	1.2 nM	3450 ng·h/mL	589 ng/mL	1 h	6.2 h	
Cc1c(-c2nc3c(o2)CCN(C)C3)cccc1-c1cccc(-c2nc3cc(CN4CCC[C@H]4C(=O)O)c(OC(F)F)cc3o2)c1C [Example 314, ((6-(difluoromethoxy)-2-(2,2′-dimethyl-3′-(5-methyl-4,5,6,7-tetrahydrooxazolo[4,5-c]pyridin-2-yl)-[1,1′-biphenyl]-3-yl)benzo[d]oxazol-5-yl)methyl)-L-proline]	8 nM	29000 ng·h/mL	6350 ng/mL	2 h	5.43 h	
Cc1c(-c2nc3cc(CN4CCC(C)C4)c(OC(F)F)cc3o2)cccc1-c1cccc(-c2nc3cc(CN4CCC[C@H]4C(=O)O)c(OC(F)F)cc3o2)c1C (stereo partly drawn) [Example 61, ((6-(difluoromethoxy)-2-(3′-(6-(difluoromethoxy)-5-((3-methylpyrrolidin-1-yl)methyl)benzo[d]oxazol-2-yl)-2,2′-dimethyl-[1,1′-biphenyl]-3-yl)benzo[d]oxazol-5-yl)methyl)-L-proline]	1.6 nM	118000 ng·h/mL	8650 ng/mL	4 h	5.37 h	
Cc1c(-c2ccc(CN3CCCC3)c(OC(F)F)c2)cccc1-c1cccc(-c2nc3cc(CN4CCC[C@H]4C(=O)O)c(OC(F)F)cc3o2)c1C [Example 244, ((6-(difluoromethoxy)-2-(3″-(difluoromethoxy)-2,2′-dimethyl-4″-(pyrrolidin-1-ylmethyl)-[1,1′:3′,1″-terphenyl]-3-yl)benzo[d]oxazol-5-yl)methyl)-L-proline]	2 nM	78100 ng·h/mL	5740 ng/mL	2 h	7.01 h	
Cc1c(Nc2nccc3cc(CN4CCC[C@@]4(C)C(=O)O)cnc23)cccc1-c1cccc(-c2nc3cc(CN4CCC[C@H]4C(=O)O)c(OC(F)F)cc3o2)c1C [Example 171, (S)-1-((8-((3′-(5-(((S)-2-carboxypyrrolidin-1-yl)methyl)-6-(difluoromethoxy)benzo[d]oxazol-2-yl)-2,2′-dimethyl-[1,1′-biphenyl]-3-yl)amino)-1,7-naphthyridin-3-yl)methyl)-2-methylpyrrolidine-2-carboxylic acid]		3470 ng·h/mL	965 ng/mL	1 h	3.66 h	0.1 to 5 nM
CNCc1cc2nc(-c3cccc(-c4cccc(-c5nc6cc(CN7CCC[C@H]7C(=O)O)c(OC(F)F)cc6o5)c4C)c3C)oc2cc1OC(F)F [Example 15, ((6-(difluoromethoxy)-2-(3′-(6-(difluoromethoxy)-5-((methylamino)methyl)benzo[d]oxazol-2-yl)-2,2′-dimethyl-[1,1′-biphenyl]-3-yl)benzo[d]oxazol-5-yl)methyl)-L-proline]	0.5 nM	5710 ng·h/mL	931 ng/mL	1 h	9.83 h	
COC(=O)[C@@H]1CCCN1Cc1cc2nc(-c3cccc(-c4cccc(-c5nc6cc(CN7CCC[C@H]7C(=O)O)c(OC(F)F)cc6o5)c4C)c3C)oc2cc1OC(F)F [Example 3, ((6-(difluoromethoxy)-2-(3′-(6-(difluoromethoxy)-5-(((S)-2-(methoxycarbonyl)pyrrolidin-1-yl)methyl)benzo[d]oxazol-2-yl)-2,2′-dimethyl-[1,1′-biphenyl]-3-yl)benzo[d]oxazol-5-yl)methyl)-L-proline]	89 nM	461 ng·h/mL	374 ng/mL	1 h	0.39 h	

Reference: patent publication US12187713B2, “Immunomodulators, compositions and methods thereof” (Betta Pharmaceuticals Co., Ltd, priority 2019, dated 2025)
